Test systems include SN12C renal; OVCAR-3 ovarian; SNB-75 CNS; T-47D breast; EKVX NSCLC; A549 NSCLC; UO-31 renal; MDA-MB-231 breast; DU-145 prostate; HOP-92 NSCLC.
Assay in all cases: inhibition of tumour cell growth, NCI panel, 48 h

7 molecules from PubChem BioAssay (NCI) can be followed below.

Structures are written as SMILES. Where “and” joins values, the source holds several entries; their conditions need not be identical. Equal values may be shown once.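 Where inhibition never reached the appropriate level, the endpoint shown equals the highest concentration tested. Otherwise, values were interpolated linearly from a five-concentration, 48-hour dose response in 96-well plates. Here, GI50 denotes the concentration required for 50% inhibition of growth. At the TGI there is no net growth.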 *1 amine or outer side, *2 acyl side, *3 side chain or, on linkers, in order; H or OH if unused. Where a SMILES comes first, the peptide text is derived from it. Bridges are numbered along the chain shown (N, C = ends). [ ]: non-standard residue; d: D form. The star is where a group is joined. Phe(3-Me) = Cc1cccc(C[C@H](N)C(=O)O)c1; NH(4-Cl-2-F-phenyl) = Fc1cc(Cl)ccc1N*; Pro(4R-Me) = C[C@H]1CN[C@H](C(=O)O)C1; Propanoyl(3-NMe2) = CN(C)CCC(=O)*; Hyp = O=C(O)[C@@H]1C[C@@H](O)CN1; aThr = C[C@H](O)[C@H](N)C(=O)O; Pip = O=C(O)[C@@H]1CCCCN1; CO = O=C([*:1])[*:2]

Take `S=C(N/N=C(/c1ccccc1)c1ccccn1)Nc1cccc(Cl)c1`: the TGI is 6.07 µM in the assay on SN12C renal; 1.98 µM and 4.59 µM with OVCAR-3 ovarian; 2.92 µM and 4.88 µM with SNB-75 CNS; 1.88 µM and 4.7 µM with EKVX NSCLC; 5.56 µM and 7.58 µM in the assay with A549 NSCLC; 3.34 µM and 4.99 µM with UO-31 renal. Besides, the TGI in the assay with MDA-MB-231 breast turned out to be 2.27 µM; with DU-145 prostate, 9.43 µM; in the assay with HOP-92 NSCLC, 13 µM. In addition, the GI50 in the assay on OVCAR-3 ovarian is under 0.001 µM; in the assay on SNB-75 CNS, 0.608 µM; in the assay on T-47D breast, 0.56 µM; in the assay with EKVX NSCLC, 0.433 µM; with A549 NSCLC it was 1.82 µM; with UO-31 renal, 1.51 µM. Moreover, the GI50 is 2.97 µM with DU-145 prostate and 1.65 µM in the assay on HOP-92 NSCLC.
Consider `Cc1cccc(C[C@H](NC(=O)Nc2ccc(Cl)cc2F)C(=O)N[C@@H]2C(=O)N3C[C@H](OC(=O)CCN(C)C)C[C@H]3C(=O)N3CCCC[C@H]3C(=O)N[C@@H](C)C(=O)N3C[C@H](C)C[C@H]3C(=O)O[C@H]2C)c1` ({NH(4-Cl-2-F-phenyl)-CO}-[Phe(3-Me)][aThr][Hyp](Propanoyl(3-NMe2))[Pip]A[Pro(4R-Me)]; ester 2-C), for which the GI50 in the assay on SN12C renal was 0.371 µM; in the assay on OVCAR-3 ovarian, 0.362 µM; in the assay with SNB-75 CNS, 1.26 µM; with T-47D breast it was 0.448 µM; with EKVX NSCLC it was 0.976 µM; in the assay on A549 NSCLC it was 0.526 µM. Besides, the GI50 is 2.17 µM in the assay with UO-31 renal, 0.417 µM in the assay on MDA-MB-231 breast, 0.514 µM in the assay with DU-145 prostate and 0.572 µM in the assay with HOP-92 NSCLC. Further, the TGI in the assay with SN12C renal came out at 2.18 µM; with OVCAR-3 ovarian it was 1.47 µM; with SNB-75 CNS, 9.44 µM; in the assay on T-47D breast, 4.53 µM; in the assay with EKVX NSCLC, 6.25 µM; with A549 NSCLC it was 11.2 µM. Further, the TGI in the assay with UO-31 renal stood at 7.13 µM; in the assay with MDA-MB-231 breast, 1.66 µM; in the assay on DU-145 prostate, 5.86 µM; with HOP-92 NSCLC, 2.66 µM.
For the molecule `COc1cc2c3c(n(CCCCl)c(=O)c2cc1OC)-c1ccc(C#N)cc1C3=O`, the GI50 with SN12C renal was 22.7 µM; with OVCAR-3 ovarian, 12.9 µM; in the assay on SNB-75 CNS, 4 µM; with T-47D breast it was over 100 µM; in the assay with EKVX NSCLC it was 7.99 µM; in the assay on A549 NSCLC, 29.5 µM. Further, the GI50 with UO-31 renal was 30.2 µM; with MDA-MB-231 breast, 1.67 µM; in the assay on DU-145 prostate, 10.7 µM; in the assay on HOP-92 NSCLC it was 16.2 µM. Besides, the TGI was over 100 µM in the assay on SN12C renal; 30.1 µM in the assay on OVCAR-3 ovarian; 15.8 µM with SNB-75 CNS; over 100 µM with T-47D breast; 67.6 µM in the assay with EKVX NSCLC; over 100 µM in the assay on A549 NSCLC. Also, the TGI was over 100 µM in the assay on UO-31 renal, 10.2 µM in the assay with MDA-MB-231 breast, over 100 µM in the assay on DU-145 prostate and 56.8 µM with HOP-92 NSCLC.
With `CC(=O)Nc1sc2c(c1-c1nc3ccccc3s1)CNC2`, the GI50 was 2.5 µM in the assay on SN12C renal; 3.85 µM in the assay with OVCAR-3 ovarian; 1.81 µM in the assay on SNB-75 CNS; 2.36 µM in the assay on T-47D breast; 2.59 µM with EKVX NSCLC; 2.26 µM in the assay on A549 NSCLC. The GI50 in the assay with UO-31 renal was 0.648 µM; in the assay with MDA-MB-231 breast, 3.09 µM; with DU-145 prostate it was 2.93 µM; in the assay on HOP-92 NSCLC, 4.21 µM. In addition, the TGI is 15.5 µM with SN12C renal; 24.4 µM with OVCAR-3 ovarian; 9.52 µM in the assay with SNB-75 CNS; 22.3 µM with T-47D breast; 21.9 µM with EKVX NSCLC; 25 µM with A549 NSCLC. Besides, the TGI with UO-31 renal is 11.4 µM; with MDA-MB-231 breast it was 16.2 µM; in the assay on DU-145 prostate, over 50 µM; in the assay on HOP-92 NSCLC, 19.2 µM.
As to `CC/C=C\C/C=C\C[C@H]1C/C=C2/C(=O)C=C[C@H]2C/C=C\CCC(=O)O1`, the GI50 in the assay with SN12C renal is 3.46 µM; in the assay with OVCAR-3 ovarian, 2.11 µM; in the assay on SNB-75 CNS, 10.1 µM; in the assay on T-47D breast, 4.62 µM; in the assay on EKVX NSCLC it was 3.81 µM; in the assay with A549 NSCLC it was 3.96 µM. Besides, the GI50 with UO-31 renal is 2.23 µM; in the assay with MDA-MB-231 breast, 4.65 µM; in the assay on DU-145 prostate, 4.33 µM; in the assay with HOP-92 NSCLC, 2.72 µM. The TGI was 8.77 µM in the assay with SN12C renal; 5.01 µM in the assay with OVCAR-3 ovarian; over 14.3 µM in the assay on SNB-75 CNS; over 14.3 µM with T-47D breast; over 14.3 µM in the assay on EKVX NSCLC; 12.2 µM with A549 NSCLC. The TGI was 4.96 µM in the assay on UO-31 renal, over 14.3 µM in the assay with MDA-MB-231 breast, over 14.3 µM in the assay with DU-145 prostate and 8.01 µM with HOP-92 NSCLC.
On to `COc1cc2c3c(c4c5ccccc5[nH]c4c2c(OC)c1OC)C(=O)N(CCN1CCCCC1)C3=O`, for which the GI50 with SN12C renal is 1.1 µM; with OVCAR-3 ovarian, 1.31 µM; in the assay with SNB-75 CNS, 2.47 µM; in the assay on T-47D breast it was 6.09 µM; with EKVX NSCLC, 1.5 µM; in the assay with A549 NSCLC it was 0.611 µM. The GI50 in the assay on UO-31 renal is 1.03 µM; in the assay with MDA-MB-231 breast it was 1.47 µM; in the assay with DU-145 prostate, 1.22 µM; in the assay with HOP-92 NSCLC, 1.3 µM. Further, the TGI with SN12C renal was 2.54 µM; in the assay with OVCAR-3 ovarian, 2.77 µM; with SNB-75 CNS, 7.19 µM; in the assay with T-47D breast, over 25.5 µM; in the assay on EKVX NSCLC it was 3.42 µM; with A549 NSCLC, 2.3 µM. In addition, the TGI turned out to be 2.32 µM with UO-31 renal, 3.08 µM with MDA-MB-231 breast, 2.54 µM with DU-145 prostate and 5.21 µM in the assay on HOP-92 NSCLC.
`C=C1N(C)c2ccc(Cl)cc2C1(C)C`: the GI50 in the assay on SN12C renal was 5.38 µM; with OVCAR-3 ovarian it was 4.95 µM; with SNB-75 CNS, 4.25 µM; in the assay on T-47D breast, 3.54 µM; in the assay on EKVX NSCLC it was 4.59 µM; in the assay with A549 NSCLC it was 17.4 µM. The GI50 is 27.9 µM in the assay on UO-31 renal, 16.7 µM in the assay with MDA-MB-231 breast, 6.66 µM in the assay on DU-145 prostate and 3.72 µM with HOP-92 NSCLC. Further, the TGI with SN12C renal is 38.1 µM; with OVCAR-3 ovarian, 38.2 µM; in the assay on SNB-75 CNS, 77.3 µM; with T-47D breast it was over 100 µM; in the assay on EKVX NSCLC, over 100 µM; with A549 NSCLC, over 100 µM. Moreover, the TGI with UO-31 renal was over 100 µM; in the assay with MDA-MB-231 breast, 57.4 µM; in the assay with DU-145 prostate, over 100 µM; in the assay with HOP-92 NSCLC, 22.9 µM.
